Reference: US20250170252A1, “QUINONE PROTECTED FORMS AND CONJUGATES” (CAMBRIDGE ENTERPRISE LIMITED, priority 2022, published 2025)

Legend:
Format in all cases: cell-based
ovine blood = experiment: Methaemoglobin analysis in sheep's blood; settings: after 1 h of incubation
Description: Defibrinated Oxoid™ sheep's blood (ThermoScientific) was diluted to a 5% v/v suspension in PBS pH 7.4. In a 96 well microtiter plate, 150 μL of blood suspension was added to 50 μL of serially diluted compound in PBS containing a 4× stock of each compound of interest. Serial dilution of compounds from DMSO stocks into PBS was performed to achieve an in-plate DMSO concentration of 0.1%. PBS buffer alone was used as a negative control. Three replicates were performed for each compound concentration analysed. The plate was incubated for the specified time at 37° C. The plate was then centrifuged at 3,500 rpm for 5 min. The supernatant was removed and cells lysed by resuspension in 100 μL of a solution of Triton-X-100 (1%) in PBS. Following this 80 μL of lysed cell contents were transferred to a second microtiter plate for UV measurement. To determine methaemoglobin increase, UV absorbance was measured immediately at 630 nm (MiniMax i3x Imager, Molecular Devices). Methaemoglobin increase was determined by (A630−A^0630)/(A^0630)×100, where A630 is the absorbance of the test well at 630 nm, and A^0630 is the absorbance of the negative control at 630 nm. Mean values and standard error of the mean of three independent replicates are plotted.

MOLM-13 = experiment: Viability assay with small molecule prodrugs, Trypan Blue exclusion, MOLM-13; settings: 5 μM, 24 h timepoint
Description: For assays assessing cytotoxicity of β-lapachone versus small molecule dipeptide prodrugs, suspension cells were plated into 24 well plates at a density of 2.5×10^5 cells/mL in 240 μL. Serial dilutions of compound were made up in PBS. 60 μL of each stock of either PBS, or compound in PBS was added to the cells to achieve the desired final concentration. After the specified incubation time, toxicity was assessed by counting of live cells using the Trypan Blue exclusion method with a Countess II Automated Cell Counter (ThermoFisher Scientific) according to the manufacturer's instructions. Cell viability was determined by division of average live cell number of treated wells by average live cell number for control wells treated with PBS only. Values recorded are the mean of three repeat wells, with error bars representing the standard error of the mean for each concentration tested. IC50 values were calculated using GraphPad Prism software.

[1] = system: HCT-116 (colon cancer cell line); experiment: Viability assay (CellTiter-Blue), HCT-116; settings: Homo sapiens
Description: (§1) Assays assessing cytotoxicity of β-lapachone and derivatives were performed by CellTiter-Blue assay (Promega) according to the manufacturer's instructions. Briefly, adherent cancer-cell lines were plated at 20,000 cells/well in 96 well plates or suspension cell lines were plated at a concentration of 2×10^5 cells/mL in 24 well plates. Compound stocks in media were made by dilution of DMSO stocks containing the compound of interest to obtain a final in-plate DMSO concentration of only 0.1%. Incubation was performed for 48 h. Following incubation, media was replaced with media containing CellTiter-Blue (Promega) in 1:10 dilution and the plates were incubated for 1.5-4 h. The fluorescence of the plates was recorded (excitation 555 nm, emission 585 nm, […] Reader, Molecular Devices). Cell viability was calculated by division of the fluorescence intensity of treated wells by that of the calculated average fluorescence intensity of replicate negative control wells containing cells with 0.1% DMSO only. Values and reported error bars represent the mean and standard error of the mean of three triplicate repeats for each concentration tested.

[2] = system: HL-60 (leukaemia cell line); experiment: Viability assay (CellTiter-Blue), HL-60; settings: Homo sapiens
Description: as §1

[3] = system: SKBR3 (breast cancer cell line); experiment: Viability assay (CellTiter-Blue), SKBR3; settings: Homo sapiens, SK-BR-3
Description: as §1

[4] = system: MCF-7 (breast cancer cell line); experiment: Viability assay (CellTiter-Blue), MCF-7; settings: Homo sapiens, MCF7
[5] = system: range of cancer cell lines, including leukaemia, breast, colon, and cervical cancer; experiment: Toxicity to a range of cancer cell lines (panel); settings: panel of cells
Description: as §1

HeLa = experiment: Toxicity with/without β-glucuronidase, HeLa; settings: Homo sapiens, read-out: IC50 β-lapachone, 1
Description: (§2) Assays assessing cytotoxicity of β-lapachone and derivatives were performed by CellTiter-Blue assay (Promega) according to the manufacturer's instructions. Briefly, adherent cancer-cell lines were plated at 20,000 cells/well in 96 well plates or suspension cell lines were plated at a concentration of 2×10^5 cells/mL in 24 well plates. Compound stocks in media were made by dilution of DMSO stocks containing the compound of interest to obtain a final in-plate DMSO concentration of only 0.1%. Incubation was performed for 48 h. Following incubation, media was replaced with media containing CellTiter-Blue (Promega) in 1:10 dilution and the plates were incubated for 1.5-4 h. The fluorescence of the plates was recorded (excitation 555 nm, emission 585 nm, MiniMax i3x Reader, Molecular Devices).
(§3) Cell viability was calculated by division of the fluorescence intensity of treated wells by that of the calculated average fluorescence intensity of replicate negative control wells containing cells with 0.1% DMSO only. Values and reported error bars represent the mean and standard error of the mean of three triplicate repeats for each concentration tested. IC50 values were calculated using GraphPad Prism 8 software.
(§4) The potential of compound 37a, glucuronide-PHB-BL, as a prodrug was investigated. As discussed above, at physiological pH the compound has a relatively slow-release rate. Toxicity of Gluc-PHB-BL 37a was tested against a range of cell lines with and without added β-glucuronidase. Addition of the enzyme mimics conditions of the solid tumour environment.

SkBr-3 = experiment: Toxicity with/without β-glucuronidase, SkBr-3; settings: Homo sapiens, SK-BR-3; SkBr-3; read-out: IC50 β-lapachone, 1
Description: as §2, §3, §4

lowest dose concentration at which methaemoglobin formation is detectable (ovine blood): 10 µM
IC50 [1]: 1.1 µM
IC50 [2]: 1.4 µM
IC50 [3]: 2.8 µM
IC50 [4]: 1.9 µM
SMILES: CC1(C)CCC2=C(O1)c1ccccc1C(=O)C2=O [Compound 1, β-lapachone, reference compound]
toxicity to MOLM-13 (MOLM-13): complete cell death
IC50 [5]: 1.1 to 4.2 µM
IC50 (HeLa): 4.26 µM
IC50 (SkBr-3): 2.75 µM
